# Source: US11241410B2, “Method and compound for the treatment of covid-19” (priority 2020, dated 2022)
# Entries after “also recorded” stand apart in the source; their conditions may differ.
# Tests used:
# activated sludge = settings: cited from earlier work
# Pseudomonas putida = settings: cited from earlier work
# rats [1] = settings: cited from earlier work
# Daphnia = settings: in vivo; cited from earlier work
# [2] = cited from earlier work
# bacterial = settings: with and without metabolic activation; cited from earlier work
# mouse lymphoma cells = settings: with and without metabolic activation; cited from earlier work
# guinea pigs = settings: intradermal and topical, listed as DEGD; cited from earlier work
# Vero E6 cells = assay: Toxicity in Vero E6 cells; type: cell-based
# Procedure: Remdesivir was used as a control and verified that the assay was working. The first independent trial (done in quadruplicate) involved using the very first BTS compound sent to us, dissolved at 10 ug/ml in DMSO. Toxicity was observed ˜0.078 ug/ml ([…] based on the molecular weight we were given and the concentration of the drug). The dose curve (log (inhibitor) vs. response (three parameters)) yielded the nicest curve, but only reached a maximum of ˜20% protection. […] Twenty-two 2-fold dilutions of the drug starting from 10 ug/ml (˜323 uM).
# FIG. 18 illustrates a graph showing 90I toxicity in Vero E6 cells, according to an exemplary embodiment of the present general inventive concept.
# MDR-27221 HIV strain = assay: microbe, parasite or virus in culture; type: cell-based, HIV-1
# [3] = 28 days; cited from earlier work
# HIV = HIV in vitro tests (Table 1); type: cell-based; settings: Human immunodeficiency virus 1
# [4] = system: Seleneastrum capricornutum; settings: in vivo; cited from earlier work
# eye of the rabbit = settings: single instillation, listed as DEGD; cited from earlier work
# Eisenia foetida = settings: cited from earlier work
# [5] = rats, cited from earlier work
# intact rabbit skin = settings: semi-occlusive, four hours, listed as DEGD; cited from earlier work
# SARS-CoV-2 = assay: microbe, parasite or virus in culture; type: cell-based
# CHL cells = settings: cited from earlier work
# gamma interferon = assay: Production of gamma interferon by cells; type: cell-based; settings: compared with positive control PMA-Ionomycin combination
# From the text: FIG. 4 illustrates a graph showing production of gamma interferon by cells receiving 90I compared to other drugs, according to an exemplary embodiment of the present general inventive concept.
# Referring to FIG. 4, furthermore, 90I has proven to stimulate the production of gamma interferon (i.e. a dimerized soluble cytokine that is the only member of the type II class of interferons and is a product of human leukocytes and human lymphocytes). More specifically, […] and differentiate into tissue macrophages, such that each of the tissue macrophages may serve as a vehicle for transporting viruses to a variety of tissues. The ability of antiretroviral agents to cross the blood brain barrier is one important consideration, since the brain acts as a sanctuary for viruses as well as a site for disease progression.
# Referring again to FIG. 4, activated CD8+ cells are reported to produce high levels of gamma interferon, which may be involved in the anti-HIV-1 immune responses, contributing to both control of viral spread and concomitant lymphoid follicular lyses. […] This finding may have a far-reaching implication and relevant to interleukin 12 (IL-12) (i.e. a cytokine that is produced by activated antigen-presenting cells, such as dendritic cells and/or macrophages). […]
# [6] = Table 10 summary; cited from earlier work
# CEM-SS cells = assay: Drug induced toxicity in CEM-SS cells; type: cell-based; settings: Homo sapiens, read-out: 50% inhibitory concentration (IC50), drug induced toxicity, high-test concentration 100 ug/ml
# rats [7] = settings: OECD 401; cited from earlier work
# rat = settings: cited from earlier work
# rats [8] = settings: cited from earlier work; remark: listed apart in the source
# [9] = system: ovariectomized adult Spraque-Dawley (CD) rats; settings: 500-2000 mg/kg/day for 7 days, oral gavage, up to maximally tolerated dose; cited from earlier work
# [10] = cited from earlier work; remark: listed apart in the source
# [11] = system: RF laboratory strain of HIV-1; assay: Antiviral drug assay in CEM-SS cells; type: cell-based; settings: Human immunodeficiency virus 1, CEM-SS, read-out: 50% effective concentration (EC50)
# dogs = settings: up to 300 mg/kg/day for 90 days; cited from earlier work
# Pimephales promelas = settings: acute, 96 h; cited from earlier work
# [12] = Severe acute respiratory syndrome coronavirus 2, preliminary, first independent trial
# [13] = from ppm by standard conversion factors
structure (smiles),measurement,setting,value
"O=C(OCCOCCOC(=O)c1ccccc1)c1ccccc1 [90I, diethylene glycol dibenzoate]","NOEC, activated sludge",activated sludge; Table 11,"NOEC ≥100 mg/L,"
same,activated sludge respiration,activated sludge; at 100 mg/L,not inhibited
same,EC50 (P. putida),Pseudomonas putida; Table 11,EC50 >10 mg/L
same,inhibitory effect (1050),Pseudomonas putida; highest testable concentration 10 mg/L,> 10 mg/L
same,Maternal toxicity,rats [1]; Table 10 summary,"1,000 mg/kg bw/day"
same,Reproductive toxicity (NOEL),rats [1]; Table 10 summary,250 mg/kg bw/day
same,Reproductive toxicity NOAEL,rats [1]; Table 10 summary,500 mg/kg bw/day
same,"Reproductive toxicity, D",rats [1]; Table 10 summary,D: Yes
same,NOAEL for prenatal development,"rats [1]; rats, diet",500 mg/kg/day
same,NOEL for fetal growth and development,"rats [1]; rats, diet",250 mg/kg/day
same,NOEL for maternal toxicity,"rats [1]; rats, diet","1,000 mg/kg/day"
same,EC50 for Daphnia,Daphnia,6.7 µg/mL
same,Log P,[2],3.04
same,"mutagenic potential, bacterial",bacterial,did not demonstrate mutagenic potential
same,"mutagenic potential, mammalian cell",mouse lymphoma cells,did not demonstrate mutagenic potential
same,Sensitisation,guinea pigs,No allergic skin reaction and Not
same,concentration at which toxicity was observed,"Vero E6 cells; Vero E6, converted with molecular weight given",~2500 nM
same,concentration at which toxicity was observed,"Vero E6 cells; Vero E6, first independent trial, quadruplicate",~78 ng/mL
same,EC50,MDR-27221 HIV strain; Human immunodeficiency virus 1,3 µg/mL
same,inhibition of the MDR strain,MDR-27221 HIV strain; MDR-27221,strong inhibitory activity
same,biodegradation,[3],93 % of ThOD
same,EC50,HIV,0.3 nM
same,growth rate-based EC50 for algae,[4],11 µg/mL
same,Eye irritation,eye of the rabbit,transient very slight conjunctival irritation only; also recorded: Slight
same,"LC50 (14 d), earthworm","Eisenia foetida; 14 d, Table 11","d) >1,000 mg/kg"
same,acute toxicity to earthworm,Eisenia foetida; 14 days,"greater than 1,000 ppm"
same,"time within which almost all of the dose was adsorbed, metabolized and excreted in the urine",[5]; single oral doses of 50 and 750 mg/kg,≤ 24 h
same,metabolic pathway,[5]; single oral doses,hydrolysis of the ester bonds to benzoic acid
same,Skin irritation,intact rabbit skin,No dermal reaction and No
same,EC50,SARS-CoV-2; [12],4100 nM
same,IC50,SARS-CoV-2; [12],2.8 nM
same,maximum protection,"SARS-CoV-2; dose curve log(inhibitor) vs. response, SARS-CoV-2 infected cells",~20%
same,clastogenic activity,CHL cells,No response considered to be indicative of clastogenic
same,amount of gamma interferon produced,gamma interferon,equivalent to that of the positive control
same,Genotoxicity,[6],Negative
same,IC50,CEM-SS cells,> 100 µg/mL
same,"LD50, oral",rats [7],"4,198 mg/kg bw"
same,"Repeat dose, NOAEL",rat; Table 10 summary,"1,000 mg/kg bw/day"
same,NOAEL,"rat; rat, thirteen week, diet","1,000 mg/kg bw"
same,"Reproductive toxicity, R",rats [8]; Table 10 summary,R: No
same,NOAEL for the FO and FI parent animals,rats [8]; [13],500 mg/kg bw/day
same,NOAEL for the developing offspring,rats [8]; [13],165 mg/kg bw/day
same,NOEL for reproductive parameters,rats [8]; [13],500 mg/kg bw/day
same,"NOAEL for the FO and FI parent animals, dietary concentration","rats [8]; rats, 2-generation, diet","10,000 ppm"
same,"NOAEL for the developing offspring, dietary concentration","rats [8]; rats, 2-generation, diet","3,300 ppm"
same,"NOEL for reproductive parameters, dietary concentration","rats [8]; rats, 2-generation, diet","10,000 ppm"
same,estrogenic activity,[9],did not exhibit estrogenic activity
same,Water solubility,[10],193 µg/mL
same,EC50,[11],0.02 µg/mL
same,effects of dietary administration,dogs,No effects
same,LC50 to fish,Pimephales promelas,3.9 µg/mL
